Source: US11773078B2, “Furin inhibitors” (Glaxosmithkline Intellectual Property Development Limited, priority 2018, dated 2023)
Where a name gives a salt, the structure may show the parent alone.

Experiments:
[1] = target: T1, furin (endogenous protease) in U20S cells (Homo sapiens, UniProt P09958); assay: Furin cell-based assay (image-based, Golgi-targeted GFP with BMP10 furin/PCSK cleavage site); settings: 24-hour incubation, read-out: furin golgi cell pXC50 (converted);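 further: Read-out is mean GFP fluorescence of Golgi puncta per cell by high-content imaging, retained when furin inhibited, over an eleven-point 0.00017–10 µM series, four-parameter fit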
T1 construct: the endogenous protease cleaves GFP; endogenous in cells; host or cells: U2OS cells transduced with a BacMam reporter

[2] = target: T2, Furin (108-574-Tev-Flag-His) enzyme (Homo sapiens, UniProt P09958); assay: Furin enzyme assay; type: biochemical; settings: for IC50: read-out: furin enzyme pIC50 (converted)
T2 construct: Furin (108-574-Tev-Flag-His) enzyme was expressed and purified from CHO cells; TEV cleavage site (C); FLAG (C); His (C); made in house; host or cells: CHO cells
Method: Reactions were performed in black 384-well polystyrene low volume plates (Greiner). Furin (108-574-Tev-Flag-His) enzyme was expressed and purified from CHO cells. Compounds of the invention were dissolved in DMSO (1.0 mM) and serially diluted 1 to 3 with DMSO through eleven dilutions to provide a final compound concentration range from 0.00017 to 10 μM. 0.05 μL of each concentration was transferred to the corresponding well of an assay plate, and then 5 μL of 40 pM furin enzyme in assay buffer (100 mM HEPES pH7.5, 1 mM CaCl2 and 0.005% Triton X-100) was added using a Multidrop Combi (Thermo) to the compound plates, and mixed by inversion. […] The plates were centrifuged at 500×g for 1 minute and incubated at room temperature for two hours. Enzyme inhibition is then quantified using an Envision instrument (PerkinElmer).
Data were analyzed using AbaseXE 7.3, utilizing a four-parameter curve fit equation. The following values were used to define limits and/or constraints for each of the four parameters: • Minimum—limit −10 to 10 • Maximum—90 to 110 • Slope—limit 0.5 to 2.0 • pXC50 confidence interval—10
Raw counts obtained from the respective plate reader (Perkin Elmer) were captured for data analysis. Curves were generated using the equation: Y=A+[(B−A)/(1+(10^C/x)^D)] • where: A=minimum response • B=maximum response • C=log 10*XC50 • D=slope factor • x=log 10 compound concentration [M]
The results were recorded as pXC50 values (−C in the above equation)

T2 sequence (P09958 108-574): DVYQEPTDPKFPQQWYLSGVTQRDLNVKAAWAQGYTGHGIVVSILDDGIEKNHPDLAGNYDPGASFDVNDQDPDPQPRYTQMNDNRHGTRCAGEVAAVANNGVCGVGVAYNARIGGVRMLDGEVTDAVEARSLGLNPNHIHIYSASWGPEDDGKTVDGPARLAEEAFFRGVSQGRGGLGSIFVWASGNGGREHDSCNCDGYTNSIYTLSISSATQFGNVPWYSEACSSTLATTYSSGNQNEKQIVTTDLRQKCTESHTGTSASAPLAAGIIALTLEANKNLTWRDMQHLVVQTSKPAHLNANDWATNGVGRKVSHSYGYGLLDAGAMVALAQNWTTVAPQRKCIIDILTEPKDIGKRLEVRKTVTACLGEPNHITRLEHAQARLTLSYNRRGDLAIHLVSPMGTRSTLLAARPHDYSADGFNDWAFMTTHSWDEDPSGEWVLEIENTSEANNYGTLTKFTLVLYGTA
T1 sequence (P09958 108-794): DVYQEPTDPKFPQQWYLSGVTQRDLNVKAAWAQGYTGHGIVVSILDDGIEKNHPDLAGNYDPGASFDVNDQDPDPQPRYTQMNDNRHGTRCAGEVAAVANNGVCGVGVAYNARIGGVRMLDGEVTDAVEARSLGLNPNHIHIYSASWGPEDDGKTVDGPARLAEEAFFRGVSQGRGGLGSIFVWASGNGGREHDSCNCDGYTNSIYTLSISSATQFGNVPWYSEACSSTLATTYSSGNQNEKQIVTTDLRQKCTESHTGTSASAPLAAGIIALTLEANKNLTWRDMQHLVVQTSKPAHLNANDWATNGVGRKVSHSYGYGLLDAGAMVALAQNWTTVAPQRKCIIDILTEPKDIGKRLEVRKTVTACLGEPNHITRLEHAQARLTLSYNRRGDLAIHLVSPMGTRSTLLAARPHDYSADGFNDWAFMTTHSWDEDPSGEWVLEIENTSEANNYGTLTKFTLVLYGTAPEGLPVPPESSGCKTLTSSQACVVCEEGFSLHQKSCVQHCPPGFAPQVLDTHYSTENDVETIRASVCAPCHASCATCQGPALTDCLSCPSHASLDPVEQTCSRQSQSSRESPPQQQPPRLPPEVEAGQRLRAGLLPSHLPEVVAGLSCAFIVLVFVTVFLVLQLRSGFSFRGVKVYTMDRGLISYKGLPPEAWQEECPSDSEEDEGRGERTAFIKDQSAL

SMILES | EC50 [1] | furin enzyme pIC50 [2] | IC50 [2]
CC(=O)NCC1CCN(Cc2cc(Oc3cnc(N4CCN(CCS(N)(=O)=O)CC4)nc3)nc(-c3cc(Cl)cc(Cl)c3)c2)CC1 [Example 286, N-((1-((2-(3,5-dichlorophenyl)-6-((2-(4-(2-sulfamoylethyl)piperazin-1-yl)pyrimidin-5-yl)oxy)pyridin-4-yl)methyl)piperidin-4-yl)methyl)acetamide] | 7.94 nM | 9.4 | –
CN1CCN(c2ccc(Oc3cc(CN4CC[C@@H]5[C@H](CC4)[C@H]5C(=O)O)cc(-c4cc(Cl)cc(Cl)c4)n3)cn2)CC1 [Example 136, (1R,7S,8r)-4-((2-(3,5-dichlorophenyl)-6-((6-(4-methylpiperazin-1-yl)pyridin-3-yl)oxy)pyridin-4-yl)methyl)-4-azabicyclo[5.1.0]octane-8-carboxylic acid] | 15.8 nM | 9.8 | –
CNC(=O)NCC1CCN(Cc2cc(Oc3cnc(N4CCN(CCC(C)O)CC4)nc3)nc(-c3cc(Cl)cc(Cl)c3)c2)CC1 (centres unmarked) [Example 295, 1-((1-((2-(3,5-dichlorophenyl)-6-((2-(4-(3-hydroxybutyl)piperazin-1-yl)pyrimidin-5-yl)oxy)pyridin-4-yl)methyl)piperidin-4-yl)methyl)-3-methylurea] | 0.794 nM | 9.5 | –
NC(=O)OCCN1CCN(Cc2cc(Oc3ccc(N4CCN(CCC(=O)O)CC4)nc3)nc(-c3cc(Cl)cc(Cl)c3)c2)CC1 [Example 55, 3-(4-(5-((4-((4-(2-(carbamoyloxy)ethyl)piperazin-1-yl)methyl)-6-(3,5-dichlorophenyl)pyridin-2-yl)oxy)pyridin-2-yl)piperazin-1-yl)propanoic acid] | 251 nM | 8.2 | –
CN1CCN(c2ncc(Oc3cc(CN4CCC(CCB(O)O)CC4)cc(-c4cc(Cl)cc(Cl)c4)n3)cn2)CC1 [Example 323, (2-(1-((2-(3,5-dichlorophenyl)-6-((2-(4-methylpiperazin-1-yl)pyrimidin-5-yl)oxy)pyridin-4-yl)methyl)piperidin-4-yl)ethyl)boronic acid] | 12.6 nM | 8.7 | –
CN1CCN(c2ncc(Oc3cc(CN4CCC(CC(O)C(=O)O)CC4)cc(-c4cc(Cl)cc(Cl)c4)n3)cn2)CC1 (centres unmarked) [Example 139, 3-(1-((2-(3,5-dichlorophenyl)-6-((2-(4-methylpiperazin-1-yl)pyrimidin-5-yl)oxy)pyridin-4-yl)methyl)piperidin-4-yl)-2-hydroxypropanoic acid] | 10 nM | 9.3 | –
CN1CCN(c2ncc(Oc3cc(CN4CCO[C@H](CCO)CC4)cc(-c4cc(Cl)cc(Cl)c4)n3)cn2)CC1 [Example 153, (S)-2-(4-((2-(3,5-dichlorophenyl)-6-((2-(4-methylpiperazin-1-yl)pyrimidin-5-yl)oxy)pyridin-4-yl)methyl)-1,4-oxazepan-7-yl)ethanol] | 15.8 nM | 7.9 | –
CNC(=O)OCC1CCN(Cc2cc(Oc3cnc(N4CCNCC4)nc3)nc(-c3cc(Cl)cc(Cl)c3)c2)CC1 [Example 73, (1-((2-(3,5-Dichlorophenyl)-6-((2-(piperazin-1-yl)pyrimidin-5-yl)oxy)pyridin-4-yl)methyl)piperidin-4-yl)methyl methylcarbamate] | 6.31 nM | 8.9 | –
CC(=O)NCC1CCN(Cc2cc(Oc3ccc(N4CCN5C(=O)NCC5C4)nc3)cc(-c3cc(Cl)cc(Cl)c3)c2)CC1 (centres unmarked) [Example 107, N-((1-((3′,5′-Dichloro-5-((6-(3-oxohexahydroimidazo[1,5-a]pyrazin-7(1H)-yl)pyridin-3-yl)oxy)-[1,1′-biphenyl]-3-yl)methyl)piperidin-4-yl)methyl)acetamide, 2 hydrochloride] | 5.01 nM | 9 | –
CNC(=O)NCC1CCN(Cc2cc(Oc3cnc(N4CCN(C)CC4)cn3)nc(-c3cc(Cl)cc(Cl)c3)c2)CC1 [Example 394, 1-((1-((2-(3,5-dichlorophenyl)-6-((5-(4-methylpiperazin-1-yl)pyrazin-2-yl)oxy)pyridin-4-yl)methyl)piperidin-4-yl)methyl)-3-methylurea] | 6.31 nM | 9 | –
CC(=O)NCC1CCN(Cc2cc(Oc3ccc(N4CCN(CCCS(C)(=O)=O)CC4)nc3)nc(-c3cc(Cl)cc(Cl)c3)c2)CC1 [Example 251, N-((1-((2-(3,5-dichlorophenyl)-6-((6-(4-(3-(methylsulfonyl)propyl)piperazin-1-yl)pyridin-3-yl)oxy)pyridin-4-yl)methyl)piperidin-4-yl)methyl)acetamide] | 5.01 nM | – | < 0.158 nM
COC(=O)NC(=O)CCN1CCN(c2ncc(Oc3cc(CN4CCC(CNC(C)=O)CC4)cc(-c4cc(Cl)cc(Cl)c4)n3)cn2)CC1 [Example 175, methyl (3-(4-(5-((4-((4-(acetamidomethyl)piperidin-1-yl)methyl)-6-(3,5-dichlorophenyl)pyridin-2-yl)oxy)pyrimidin-2-yl)piperazin-1-yl)propanoyl)carbamate] | – | 9.2 | –
CN1CCN(c2ncc(Oc3cc(CN4CC[C@@H]5[C@H](CC4)[C@H]5C(=O)O)cc(-c4cc(Cl)cc(Cl)c4)n3)cn2)CC1 [Example 321, (1R,7S,8r)-4-((2-(3,5-dichlorophenyl)-6-((2-(4-methylpiperazin-1-yl)pyrimidin-5-yl)oxy)pyridin-4-yl)methyl)-4-azabicyclo[5.1.0]octane-8-carboxylic acid] | 15.8 nM | – | –
CNC(=O)NCC1CCN(Cc2cc(Oc3ccc(N4CCN(CCCS(N)(=O)=O)CC4)nc3)nc(-c3cc(Cl)cc(Cl)c3)c2)CC1 [Example 260, 3-(4-(5-((6-(3,5-dichlorophenyl)-4-((4-((3-methylureido)methyl)piperidin-1-yl)methyl)pyridin-2-yl)oxy)pyridin-2-yl)piperazin-1-yl)propane-1-sulfonamide] | 6.31 nM | – | –
CC(=O)NCC1CCN(Cc2cc(Oc3ncc(N)cn3)cc(-c3cc(Cl)cc(Cl)c3)c2)CC1 [Example 43, N-((1-((5-((5-aminopyrimidin-2-yl)oxy)-3′,5′-dichloro-[1,1′-biphenyl]-3-yl)methyl)piperidin-4-yl)methyl)acetamide] | – | 6 | –
COC(=O)NC(=O)CCN1CCN(c2ncc(Oc3cc(CN4CCC(CNC(C)=O)CC4)cc(-c4cc(Cl)cc(Cl)c4)n3)cn2)CC1 [Example 172, methyl (3-(4-(5-((4-((4-(acetamidomethyl)piperidin-1-yl)methyl)-6-(3,5-dichlorophenyl)pyridin-2-yl)oxy)pyrimidin-2-yl)piperazin-1-yl)propanoyl)carbamate] | – | – | 0.251 nM
C[C@H](CC1CCN(Cc2cc(Oc3ccc(N4CCN(C)CC4)nn3)nc(-c3cc(Cl)cc(Cl)c3)c2)CC1)C(=O)O [Example 364, (R)-3-(1-((2-(3,5-dichlorophenyl)-6-((6-(4-methylpiperazin-1-yl)pyridazin-3-yl)oxy)pyridin-4-yl)methyl)piperidin-4-yl)-2-methylpropanoic acid] | 31.6 nM | – | –
CN1CCN(c2cnc(Oc3nc(-c4cc(Cl)cc(Cl)c4)cc(CN4CCC(CC(=O)O)CC4)c3F)cn2)CC1 [Example 390, 2-(1-((6-(3,5-Dichlorophenyl)-3-fluoro-2-((5-(4-methylpiperazin-1-yl)pyrazin-2-yl)oxy)pyridin-4-yl)methyl)piperidin-4-yl)acetic acid] | – | 8.3 | –
